Consider 18 molecules from patent US20240325335A1, “BIOLOGICALLY COMPATIBLE, BIOFILM DISRUPTING COMPOSITION AND METHODS” (priority 2023, published 2024).

One data set relates to C. trachomatis. The following applies: Bergsson, '98; cited from earlier work.
The test system of data set [1] is Pseudomonas aeruginosa (ATCC #15442) biofilm. As to the kind of experiment: Biofilm Protocol #1, ASTM E2871 single tube method, CDC Biofilm Reactor. The note with it: 5-minute contact time; for Log10 CFU/Coupon: treated coupons.
In data set [2] the test system is Staphylococcus aureus (ATCC #6538) biofilm. The description is as above. The note with it: 5-minute contact time; for Log10 CFU/Coupon: treated coupons.
Data set [3] relates to Pseudomonas aeruginosa (ATCC #15442) biofilm. As to the kind of experiment: Biofilm Protocol #2, ASTM E2871 single tube method, 48 hour biofilm. Format: cell-based. As for the experimental part:
(§1) In this round of testing, it was the intent to test numerous potential antibiofilm combinations.
(§2) EtOH (ethanol) was used as a solvent for all hydrophobic compounds: SLs, CaprAc, CURC and OCT. EtOH was used at up to 1.0% concentration.
(§3) Alkaline pH is achieved with NaOH titration.
(§4) Each was performed in one replicate for each species. A single sponsor-selected exposure duration was evaluated. The challenge organisms for this evaluation were Pseudomonas aeruginosa (ATCC #15442) and Staphylococcus aureus MRSA (ATCC #6538

Data set [4] relates to Staphylococcus aureus MRSA (ATCC #6538) biofilm. Described as above. Format: cell-based. As for the experimental part: as §1, §2, §3, §4
The subject of data set [5] is Candida albicans 48 hour biofilm. As to the kind of experiment: P #5B-D Candida biofilm testing. Format: cell-based. The note with it: pH 9.0-9.5, one hour contact time. As for the experimental part:
Organisms: Candida albicans ([…] 1078). Date Culture Initiated: […] Culture Medium: Sabouraud dextrose agar. […] These tests were performed utilizing only UDA, due to the poor GML results in P #5A. […] […] Effect of Aspartic Acid, Cysteine, Salicylic Acid […] Prior literature indicates poor antifungal effects in alkaline pH, thus it was the intent to document whether disclosed compositions would generate an improved antifungal effect in alkaline pH.

In data set [6] the test system is Mycobacterium fortuitum (ATCC #6841) biofilm. The data set can be described thus: Protocol #6 mycobacterial biofilm in silicone tubing. The following applies: pH 9.0, 5 hours contact time. The data set is classed as cell-based. As for the experimental part:
Two challenge microorganisms are separately evaluated: Brevundimonas diminuta (ATCC #19146) and Mycobacterium fortuitum (ATCC #6841). Biofilms of each challenge microorganism were formed in laboratory-created tubing loops consisting of a length of silicone tubing connected to a bottle of challenge microorganism in growth broth. The fluid within the tubing loop was recirculated for 10 to 14 days (Mycobacterium fortuitum) at a flowrate of 30 mL/minute while held at 36° C. (Mycobacterium fortuitum). Following completion of biofilm generation, the tubing loops were drained, and the tube lumen gently rinsed with phosphate-buffered water to remove planktonic (i.e., non-biofilm) challenge microorganisms. The tubing was then disinfected according to the manufacturer's Instructions for Use. At the completion of treatment, a portion of the silicone tubing was removed for analysis of biofilm concentration and imaging of biofilm coverage.

The next data set has as its system P. acnes. The data set can be described thus: Protocol #4 in-vitro time-kill (ASTM E2315). The data set is classed as cell-based, Propionibacterium acnes. As for the experimental part:
PURPOSE: This evaluation uses an in-vitro time-kill method to quantitatively assess the bactericidal activity of […] (10) formulations when challenged with P. acnes. An in vitro time-kill evaluation was conducted with various compositions based upon the methods described in the standardized ASTM […], Standard Guide for Assessment of Antimicrobial Activity Using a Time-Kill Procedure. […] A neutralization assay was performed on all the challenge organisms. Testing at pH 4.0.

The test system of data set [7] is Candida albicans (ATCC MYA-2876; TPPS 1078), planktonic. As to the kind of experiment: P #5A planktonic antifungal testing. Format: cell-based. The following applies: up to 5-hour contact time, lecithin solubilizer. On the procedure:
Two sets of planktonic antifungal tests were performed, Candida and the dermatophyte Epidermophyton floccusum. Fungal strains-Candida albicans (ATCC MYA-2876; TPPS 1078) procured from the American Type Culture Collection, Manassas, VA.-Epidermophyton floccosum (ATCC 15693; TPPS 1243) procured from the American Type Culture Collection, Manassas, VA.

The conditions of data set [8]: cited from earlier work.
The next data set has as its system enveloped viruses. The following applies: at 1 hour, virtually all enveloped viruses tested (Hierholzer, '16); cited from earlier work.
The conditions of data set [9]: aqueous.
Data set [10] has as its system Herpes Simplex Virus type 1 strain HF (ATCC #VR-260). As to the kind of experiment: Virucidal Suspension Test (ASTM E1052-20, in-vitro time-kill). Format: cell-based. The following applies: pH 9.0, 30 sec. From the text:
The testing was based upon ASTM E1052-20, Standard Practice to Assess the Activity of Microbicides against Viruses in Suspension. The first antiviral testing protocols involve only HSV-1 virus with both alkaline and acid pH tests.
This study was done to determine virucidal efficacy of twelve test products when challenged with Herpes Simplex Virus type 1 strain HF (ATCC #VR-260) based upon a Virucidal Suspension Test (In-Vitro Time-Kill method). The test products comprise 8 varying compositions. Calculations of the estimated virus concentrations was performed using a 50% tissue culture infectious dose (TCID50) calculation—the Quantal test (Spearman-Karber Method). The logo reductions from the initial population of the viral strain were determined following exposure to the test product for 30 seconds, 2.5 minutes and 5 minutes. Testing was conducted in one replicate. Plating was performed in four replicates. […]
This study was done to determine virucidal efficacy of 12 test products when challenged with HSV-1 strain HF (ATCC #VR-260) and Human Coronavirus strain OC43 (ZeptoMetrix #0810024CF) based upon a Virucidal Suspension Test (In-Vitro Time-Kill method). […] The log 10 reductions from the initial population of the viral strain were determined following exposure to the test product for 30 seconds, 2.5 minutes and 5 minutes. […]

For data set [11], the system named is Pseudomonas aeruginosa biofilm. The data set can be described thus: Biofilm Protocol #3, LR against 48-hour biofilm, CDC Biofilm Reactor. Format: cell-based. The note with it: pH 9.0, 5 hours contact time. On the procedure: LR testing was performed with varying compositions of GML and UDA against Staph. aureus, Pseudomonas aeruginosa, E. coli., Klebsiella pneumonia, Enterococcus faecalis. All biofilm is 48 hour laboratory grown. Biofilms of the tested organisms were grown in the laboratory to become mature 48-hour old biofilm. Testing involved the evaluation of numerous composition combinations for their ability to kill biofilm-associated pathogens grown using a CDC Biofilm Reactor. The ability to kill organisms was documented as a LR of the selected organisms that was measured as CFUs (colony forming units). LRs were documented for the different composition combinations. Testing protocols initially included both FAs and esters. […] LR testing was performed with numerous combinations to determine an optimal combination. […] Additional combinations comprised the plant phenol/flavonoid quercetin, amino acids, the synthetic surfactant SLS, biosurfactants RL and MEL, and UDA. The BS SL was not tested due to poor results in the prior P #2 configurations. […] The TSC served as a buffer. […] Alkaline pH was buffered with disodium hydrogen phosphate or glycine.

For data set [12] the following is noted: at 24 hours (Zeichner, '13); cited from earlier work.
The next data set deals with cold sores. As to the kind of experiment: Additional clinical data and case study, cold sores. Format: in vivo, human. The note with it: case study patient (untreated 2-4 weeks).

Where “and” joins values, the source holds several entries; their conditions need not be identical. Equal values may be shown once. Starred links: 1 amine or outer side, 2 acyl side, 3 side chain; linkers in the order of their positions; H or OH if unused. Positions of bridges follow the written chain, without caps; N, C: chain ends. Non-standard residues stand in square brackets, D forms with d. Residues, ends and D or L forms follow the SMILES beside them. X1 = CC(C)CCCCCCCCC[C@H](CC(=O)[*:1])O[*:2] Bounds are passed on as bounds.

Regarding `CCCCCCCC(=O)OCC(O)CO` (centres unmarked) [monocaprylin], the “reduction in the infectivity titer / inactivation” value with C. trachomatis is “negligible effects”.

As to `CCCCCCCCCC(=O)OCC(O)CO` (centres unmarked) [monocaprin], the “reduction in the infectivity titer / inactivation” value with C. trachomatis is more than 5 log 10.

For the molecule `CCCCCC/C=C\CCCCCCCC(=O)O` [palmitoleic acid], the “reduction in the infectivity titer / inactivation” value in the data set with C. trachomatis is “negligible effects”.

With `CCCCCCCCN=c1ccn(CCCCCCCCCCn2ccc(=NCCCCCCCC)cc2)cc1` [J: OCT 0.02%, 0.2 mg/mL, octenidine], in data set [1], the “Log10 Reduction” value was 0.80, the “Percent Reduction” value is listed as 84.48% and the “Log10 CFU/Coupon” value is 8.35. In data set [2] (0.2 mg/ml), the “Log10 Reduction” value is 1.87, the “Percent Reduction” value was 98.68% and the “Log10 CFU/Coupon” value stood at 6.34.

On to `CC(C)CCCCCCCCC[C@@H]1CC(=O)N[C@@H](CCC(=O)O)C(=O)N[C@@H](CC(C)C)C(=O)N[C@H](CC(C)C)C(=O)N[C@@H](C(C)C)C(=O)N[C@@H](CC(=O)O)C(=O)N[C@H](CC(C)C)C(=O)N[C@@H](CC(C)C)C(=O)O1` [Surfactin] (EL[dL]VD[dL]L; linker N-C via X1), for which, in data set [1], the “Log10 Reduction” value worked out at 0.00, the “Percent Reduction” value came to 0.00% and the “Log10 CFU/Coupon” value stood at 9.18. For the same molecule, in data set [2], the “Log10 Reduction” value is listed as 0.00, the “Percent Reduction” value is reported as 0.00% and the “Log10 CFU/Coupon” value turned out to be 8.28.

As to `CCCCCCCCN=c1ccn(CCCCCCCCCCn2ccc(=NCCCCCCCC)cc2)cc1` [I: OCT 0.1%, 1 mg/mL, octenidine], in data set [1], the “Log10 Reduction” value is on record as 1.84, the “Percent Reduction” value stood at 98.56% and the “Log10 CFU/Coupon” value came to 7.31. In addition, in [2] (1 mg/mL.), the “Log10 Reduction” value was 3.28, the “Percent Reduction” value was determined as 99.95% and the “Log10 CFU/Coupon” value was 4.93.

For the molecule benzalkonium chloride [BAC], in data set [3] (Acid pH 4.0), the “LOG REDUCTIONS Pseud” value is > 6 and > 7. In addition, the “LOG REDUCTIONS Staph” value in data set [4] (Acid pH 4.0) is 6.12 and > 7.

Take `CCCCCCCC/C=C\CCCCCCCC(=O)O` [oleic acid]: in the data set on C. trachomatis, the “reduction in the infectivity titer / inactivation” value is reported as “negligible effects”.

Regarding `CCCCCCCCCCCCCC(=O)O` [myristic acid], in the data set with C. trachomatis, the “reduction in the infectivity titer / inactivation” value is reported as “negligible effects”.

As to `CCCCCCCC/C=C\CCCCCCCC(=O)OCC(O)CO` (centres unmarked) [monoolein], in the data set on C. trachomatis, the “reduction in the infectivity titer / inactivation” value is given as “negligible effects”.

For `CCCCCCCC(=O)O` [Caprylic acid], in the data set on C. trachomatis, the “reduction in the infectivity titer / inactivation” value is given as “negligible effects”.

Turning to `C=CCCCCCCCCC(=O)O` [UDA, undecylenic acid], the LR in [5] is on record as more than 4; in data set [6], more than 5.31.

As to `CCCCCC/C=C\CCCCCCCC(=O)OCC(O)CO` (centres unmarked) [monopalmitolein], the “reduction in the infectivity titer / inactivation” value with C. trachomatis is listed as “negligible effects”.

In the case of `CCCCCCCCCCCC(=O)OCC(O)CO` (centres unmarked) [GML, glycerol monolaurate], the “Log Reductions 0.5 (30 seconds)” value in the data set on P. acnes (pH 4.0, 30 seconds exposure) was 1.87. Besides, the “Log Reductions 5 min” value in the data set with P. acnes (pH 4.0, 5 min exposure) is given as 4.81. In [7], the “LRs against planktonic C. albicans” value is on record as 0-1. In [8], the maximal water solubility was less than 0.1 mg/mL. Further, in the data set with enveloped viruses, the log reduction is on record as more than 3. Moreover, the “maximum concentration of GML solubilized” value in [9] (EtOH 1% as solvent) is given as 0.1%. Moreover, the GML concentration solubilized in data set [9] (deoiled lecithin as solubilizer) is on record as not below 20%. Besides, in the data set with C. trachomatis, the “reduction in the infectivity titer / inactivation” value is reported as “negligible effects”. Also, the “LR 30 sec” value in data set [10] was > 5.5 and > 4.75 and > 5.25. In addition, the “LR PA” value in [11] amounted to 9.11.

Consider `CCCCCCCCCCCCOS(=O)(=O)[O-].[Na+]` [SLS, sodium lauryl sulfate], for which, in data set [11], the “LR PA” value is recorded as 3.76.

As for `O=C(OOC(=O)c1ccccc1)c1ccccc1` [BPO, benzoyl peroxide], the “BPO absorbed through the skin” value in data set [12] is on record as 5-9%.

For the molecule `CCCCCCCCN=c1ccn(CCCCCCCCCCn2ccc(=NCCCCCCCC)cc2)cc1` [OCT, octenidine], the figures for the “LOG REDUCTIONS Pseud” value in data set [3] (Acid pH 4.0) and in [3] (Alkaline pH 8.5) were 4.9 and 9.11, respectively. Also, the “LOG REDUCTIONS Staph” value was found to be 1.08 in [4] (Acid pH 4.0) and 7.9 in [4] (Alkaline pH 8.5).

On to `Nc1nc2c(ncn2COCCO)c(=O)[nH]1` [Acyclovir, acyclovir], for which the “time to resolution of cold sores” value in the data set on cold sores is 7 to 14 days.
